One compound from patent US8741907B2, “Alkyl-substituted pyrazolopyrimidines” (Boehringer Ingelheim International GmbH, priority 2002, dated 2014) can be followed below.

The target of one data set is PDE1C (Homo sapiens (Human), UniProt Q14123). Kind of data set: PDE inhibition, recombinant PDE1C. The class given is biochemical.
The target of another data set is PDE2A (Homo sapiens (Human), UniProt O00408). Kind of data set: PDE inhibition, recombinant PDE2A. It is filed as biochemical. From the text:
(§1) Recombinant PDE1C (GenBank/EMBL Accession Number: NM_005020, Loughney et al. J. Biol. Chem. 1996 271, 796-806), PDE2A (GenBank/EMBL Accession Number: NM_002599, Rosman et al. Gene 1997 191, 89-95), PDE3B (GenBank/EMBL Accession Number: NM_000922, Miki et al. Genomics 1996, 36, 476-485), PDE4B (GenBank/EMBL Accession Number: NM_002600, Obernolte et al. Gene. 1993, 129, 239-247), PDE5A (GenBank/EMBL Accession Number: NM_001083, Loughney et al. Gene 1998, 216, 139-147), PDE7B (GenBank/EMBL Accession Number: NM_018945, Hetman et al. Proc. Natl. Acad. Sci. U.S.A. 2000, 97, 472-476), PDE8A (GenBank/EMBL Accession Number. AF—056490, Fisher et al. Biochem. Biophys. Res. Commun. […]
(§2) The test substances are dissolved in 100% DMSO and serially diluted to determine their in vitro effect on PDE 9A. […] The plates are then measured for 30 s per well in a Microbeta scintillation counter (Wallac Inc., Atlanta, Ga.). IC50 values are determined from the graphical plot of the substance concentration versus the percentage inhibition.
(§3) The in vitro effect of test substances on recombinant PDE3B, PDE4B, PDE7B, PDE8A, PDE10A and PDE11A is determined in accordance with the assay protocol described above for PDE9A with the following adaptations: [5′,8-^3H] adenosine 3′,5′-cyclic phosphate (1 μCi/μL; Amersham Pharmacia Biotech., Piscataway, N.J.) is used as substrate. […]

A further data set has as its target PDE3B (Homo sapiens (Human), UniProt Q13370). As to the kind of experiment: PDE inhibition, recombinant PDE3B. The class given is biochemical.
Source text: as §1, §2, §3

The next data set concerns the target PDE4B (Homo sapiens, UniProt Q07343). Kind of data set: PDE inhibition, recombinant PDE4B. The class given is biochemical. The procedure:
The test substances are dissolved in 100% DMSO and serially diluted to determine their in vitro effect on PDE 9A. […] 2 μL portions of the diluted substance solutions are introduced into the wells of microtiter plates (Isoplate; Wallac Inc., Atlanta, Ga.). Then 50 μL of a dilution of the PDE9A preparation described above are added. […] The substrate, [8-^3H] guanosine 3′,5′-cyclic phosphate (1 μCi/μL; Amersham Pharmacia Biotech., Piscataway, N.J.) is diluted 1:2000 with assay buffer (50 mM Tris/HCl pH 7.5, 8.3 mM MgCl2, 1.7 mM EDTA) to a concentration of 0.0005 μCi/μL. The enzyme reaction is finally started by adding 50 μL (0.025 μCi) of the diluted substrate. […] Immediately thereafter, 25 μL of a suspension containing 18 mg/mL Yttrium Scintillation Proximity Beads (Amersham Pharmacia Biotech., Piscataway, N.J.) are added. […] The plates are then measured for 30 s per well in a Microbeta scintillation counter (Wallac Inc., Atlanta, Ga.). IC50 values are determined from the graphical plot of the substance concentration versus the percentage inhibition.
The in vitro effect of test substances on recombinant PDE3B, PDE4B, PDE7B, PDE8A, PDE10A and PDE11A is determined in accordance with the assay protocol described above for PDE9A with the following adaptations: [5′,8-^3H] adenosine 3′,5′-cyclic phosphate (1 μCi/μL; Amersham Pharmacia Biotech., Piscataway, N.J.) is used as substrate.

A further data set addresses PDE5A (Homo sapiens (Human), UniProt O76074). Kind of data set: PDE inhibition, recombinant PDE5A. It is filed as biochemical.
Source text: as §1, §2, §3

Another data set concerns the target PDE7B (Homo sapiens (Human), UniProt Q9NP56). Kind of data set: PDE inhibition, recombinant PDE7B. The class given is biochemical.
Source text: as §1, §2, §3

The target of a further data set is PDE8A (Homo sapiens (Human), UniProt O60658). As to the kind of experiment: PDE inhibition, recombinant PDE8A. It is filed as biochemical.
PDE8A, sequence (O60658 117-829): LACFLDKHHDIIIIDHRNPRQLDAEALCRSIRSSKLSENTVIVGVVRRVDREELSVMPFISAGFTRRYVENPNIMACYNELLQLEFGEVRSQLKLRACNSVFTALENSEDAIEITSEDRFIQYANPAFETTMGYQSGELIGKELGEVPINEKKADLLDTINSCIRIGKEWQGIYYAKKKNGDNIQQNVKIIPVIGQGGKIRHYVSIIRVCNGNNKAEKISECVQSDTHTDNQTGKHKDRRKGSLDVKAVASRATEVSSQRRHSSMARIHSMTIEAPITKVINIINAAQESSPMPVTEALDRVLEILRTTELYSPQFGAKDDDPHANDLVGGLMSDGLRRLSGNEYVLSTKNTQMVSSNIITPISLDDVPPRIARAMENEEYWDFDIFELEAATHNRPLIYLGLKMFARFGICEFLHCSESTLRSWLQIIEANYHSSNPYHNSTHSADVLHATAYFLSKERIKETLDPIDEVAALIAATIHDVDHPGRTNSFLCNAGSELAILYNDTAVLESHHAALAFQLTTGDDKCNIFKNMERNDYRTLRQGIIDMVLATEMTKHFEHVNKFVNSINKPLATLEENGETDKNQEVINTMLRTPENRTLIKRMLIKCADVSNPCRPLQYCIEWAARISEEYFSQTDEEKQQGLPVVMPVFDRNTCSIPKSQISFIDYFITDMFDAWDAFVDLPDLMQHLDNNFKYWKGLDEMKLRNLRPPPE
Source text: as §1, §2, §3

Another data set has as its target PDE9A (Homo sapiens (Human), UniProt O76083). Kind of data set: PDE inhibition, recombinant PDE9A. It is filed as biochemical. The procedure:
The test substances are dissolved in 100% DMSO and serially diluted to determine their in vitro effect on PDE 9A. […] 2 μL portions of the diluted substance solutions are introduced into the wells of microtiter plates (Isoplate; Wallac Inc., Atlanta, Ga.). Then 50 μL of a dilution of the PDE9A preparation described above are added. […] The substrate, [8-^3H] guanosine 3′,5′-cyclic phosphate (1 μCi/μL; Amersham Pharmacia Biotech., Piscataway, N.J.) is diluted 1:2000 with assay buffer (50 mM Tris/HCl pH 7.5, 8.3 mM MgCl2, 1.7 mM EDTA) to a concentration of 0.0005 μCi/μL. The enzyme reaction is finally started by adding 50 μL (0.025 μCi) of the diluted substrate. […] Immediately thereafter, 25 μL of a suspension containing 18 mg/mL Yttrium Scintillation Proximity Beads (Amersham Pharmacia Biotech., Piscataway, N.J.) are added. The microliter plates are sealed with a film and left to stand at room temperature for 60 min. The plates are then measured for 30 s per well in a Microbeta scintillation counter (Wallac Inc., Atlanta, Ga.). IC50 values are determined from the graphical plot of the substance concentration versus the percentage inhibition.

The target in another data set is PDE10A (Homo sapiens (Human), UniProt Q9Y233). As to the kind of experiment: PDE inhibition, recombinant PDE10A. The class given is biochemical.
PDE10A, sequence (Q9Y233 other isoform, or with tags, fused parts or gaps): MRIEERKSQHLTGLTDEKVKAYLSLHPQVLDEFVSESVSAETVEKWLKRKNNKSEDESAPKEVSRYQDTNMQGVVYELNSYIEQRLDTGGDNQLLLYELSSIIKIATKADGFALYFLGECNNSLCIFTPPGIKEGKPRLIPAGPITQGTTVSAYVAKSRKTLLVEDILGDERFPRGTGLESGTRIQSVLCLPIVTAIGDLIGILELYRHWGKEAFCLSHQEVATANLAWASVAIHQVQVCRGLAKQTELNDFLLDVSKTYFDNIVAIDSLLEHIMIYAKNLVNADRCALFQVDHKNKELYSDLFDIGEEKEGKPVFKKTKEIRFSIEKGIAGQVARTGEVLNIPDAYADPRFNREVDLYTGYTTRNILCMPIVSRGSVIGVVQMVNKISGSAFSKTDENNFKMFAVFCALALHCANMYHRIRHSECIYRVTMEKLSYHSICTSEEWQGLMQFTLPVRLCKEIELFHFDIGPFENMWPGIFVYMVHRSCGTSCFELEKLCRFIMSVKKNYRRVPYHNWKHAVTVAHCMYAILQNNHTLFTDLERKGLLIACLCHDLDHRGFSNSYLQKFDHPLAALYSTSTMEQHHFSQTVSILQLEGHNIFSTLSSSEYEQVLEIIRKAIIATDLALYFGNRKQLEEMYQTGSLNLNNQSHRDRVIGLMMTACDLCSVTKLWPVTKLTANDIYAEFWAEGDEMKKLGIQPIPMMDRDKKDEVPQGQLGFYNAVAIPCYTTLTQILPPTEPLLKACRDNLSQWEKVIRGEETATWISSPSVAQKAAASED
Source text: as §1, §2, §3

What is called IC50 is the concentration needed to halve the response being measured. Broadly, the melting point is the temperature of the solid-liquid transition.

SMILES strings stand for the structures. A value given as a limit tells only on which side of the number the result lay.

PDE3B, sequence (Q13370 whole entry): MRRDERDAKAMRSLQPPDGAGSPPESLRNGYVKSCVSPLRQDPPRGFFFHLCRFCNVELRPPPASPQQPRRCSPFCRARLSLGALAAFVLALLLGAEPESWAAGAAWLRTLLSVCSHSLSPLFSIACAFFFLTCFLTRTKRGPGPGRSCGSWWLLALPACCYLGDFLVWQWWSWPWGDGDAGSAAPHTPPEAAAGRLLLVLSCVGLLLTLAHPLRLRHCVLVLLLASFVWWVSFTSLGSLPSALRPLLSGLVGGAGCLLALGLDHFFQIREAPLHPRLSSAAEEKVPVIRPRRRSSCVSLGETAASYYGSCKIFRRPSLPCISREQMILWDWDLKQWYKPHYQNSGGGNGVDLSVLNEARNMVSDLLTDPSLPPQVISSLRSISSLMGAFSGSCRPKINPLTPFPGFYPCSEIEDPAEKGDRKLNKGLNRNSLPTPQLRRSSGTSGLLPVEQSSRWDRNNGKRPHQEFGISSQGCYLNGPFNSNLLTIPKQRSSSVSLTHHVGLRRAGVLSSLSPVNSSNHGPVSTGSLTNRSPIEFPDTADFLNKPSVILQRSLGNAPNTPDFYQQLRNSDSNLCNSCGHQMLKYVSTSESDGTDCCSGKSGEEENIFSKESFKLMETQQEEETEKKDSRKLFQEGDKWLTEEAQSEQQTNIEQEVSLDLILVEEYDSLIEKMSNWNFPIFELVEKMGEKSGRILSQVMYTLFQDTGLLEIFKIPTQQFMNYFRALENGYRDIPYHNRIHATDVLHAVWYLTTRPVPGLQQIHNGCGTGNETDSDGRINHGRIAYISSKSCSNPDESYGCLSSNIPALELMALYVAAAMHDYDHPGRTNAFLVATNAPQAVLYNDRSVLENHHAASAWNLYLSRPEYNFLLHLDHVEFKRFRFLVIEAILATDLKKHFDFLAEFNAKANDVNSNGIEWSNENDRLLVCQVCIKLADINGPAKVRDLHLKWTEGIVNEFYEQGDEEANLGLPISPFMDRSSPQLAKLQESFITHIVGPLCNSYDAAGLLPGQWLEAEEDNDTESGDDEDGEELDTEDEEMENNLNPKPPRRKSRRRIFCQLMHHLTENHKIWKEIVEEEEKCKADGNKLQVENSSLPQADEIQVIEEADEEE
PDE9A, sequence (O76083 whole entry): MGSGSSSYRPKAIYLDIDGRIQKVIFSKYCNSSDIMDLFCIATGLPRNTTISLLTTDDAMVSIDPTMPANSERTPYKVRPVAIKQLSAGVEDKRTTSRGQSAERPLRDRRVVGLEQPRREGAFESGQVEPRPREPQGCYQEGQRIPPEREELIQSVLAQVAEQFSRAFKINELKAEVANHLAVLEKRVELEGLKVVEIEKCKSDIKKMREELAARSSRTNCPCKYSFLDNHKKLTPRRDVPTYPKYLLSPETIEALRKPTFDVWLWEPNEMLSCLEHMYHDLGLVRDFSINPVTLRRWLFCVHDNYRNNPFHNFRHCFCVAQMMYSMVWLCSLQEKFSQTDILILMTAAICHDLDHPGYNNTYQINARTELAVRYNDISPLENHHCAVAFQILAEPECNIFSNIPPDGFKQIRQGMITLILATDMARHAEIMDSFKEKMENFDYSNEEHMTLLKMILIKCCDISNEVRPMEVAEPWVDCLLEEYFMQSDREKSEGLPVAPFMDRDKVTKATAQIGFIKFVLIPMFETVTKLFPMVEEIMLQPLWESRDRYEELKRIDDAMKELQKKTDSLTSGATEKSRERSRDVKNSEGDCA
PDE7B, sequence (Q9NP56 whole entry): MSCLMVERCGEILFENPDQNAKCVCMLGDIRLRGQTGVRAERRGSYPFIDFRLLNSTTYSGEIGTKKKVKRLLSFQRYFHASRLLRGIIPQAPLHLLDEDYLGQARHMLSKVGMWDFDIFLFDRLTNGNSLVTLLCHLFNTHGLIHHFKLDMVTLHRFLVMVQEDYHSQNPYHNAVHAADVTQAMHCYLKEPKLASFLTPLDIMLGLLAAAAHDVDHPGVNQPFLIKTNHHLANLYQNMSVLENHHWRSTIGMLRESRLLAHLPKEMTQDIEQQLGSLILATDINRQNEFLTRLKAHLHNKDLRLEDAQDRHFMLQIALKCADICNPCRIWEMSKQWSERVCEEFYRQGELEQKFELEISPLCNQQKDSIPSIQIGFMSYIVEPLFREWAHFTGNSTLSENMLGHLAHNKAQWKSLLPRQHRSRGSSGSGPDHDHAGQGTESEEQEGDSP
PDE2A, sequence (O00408 whole entry): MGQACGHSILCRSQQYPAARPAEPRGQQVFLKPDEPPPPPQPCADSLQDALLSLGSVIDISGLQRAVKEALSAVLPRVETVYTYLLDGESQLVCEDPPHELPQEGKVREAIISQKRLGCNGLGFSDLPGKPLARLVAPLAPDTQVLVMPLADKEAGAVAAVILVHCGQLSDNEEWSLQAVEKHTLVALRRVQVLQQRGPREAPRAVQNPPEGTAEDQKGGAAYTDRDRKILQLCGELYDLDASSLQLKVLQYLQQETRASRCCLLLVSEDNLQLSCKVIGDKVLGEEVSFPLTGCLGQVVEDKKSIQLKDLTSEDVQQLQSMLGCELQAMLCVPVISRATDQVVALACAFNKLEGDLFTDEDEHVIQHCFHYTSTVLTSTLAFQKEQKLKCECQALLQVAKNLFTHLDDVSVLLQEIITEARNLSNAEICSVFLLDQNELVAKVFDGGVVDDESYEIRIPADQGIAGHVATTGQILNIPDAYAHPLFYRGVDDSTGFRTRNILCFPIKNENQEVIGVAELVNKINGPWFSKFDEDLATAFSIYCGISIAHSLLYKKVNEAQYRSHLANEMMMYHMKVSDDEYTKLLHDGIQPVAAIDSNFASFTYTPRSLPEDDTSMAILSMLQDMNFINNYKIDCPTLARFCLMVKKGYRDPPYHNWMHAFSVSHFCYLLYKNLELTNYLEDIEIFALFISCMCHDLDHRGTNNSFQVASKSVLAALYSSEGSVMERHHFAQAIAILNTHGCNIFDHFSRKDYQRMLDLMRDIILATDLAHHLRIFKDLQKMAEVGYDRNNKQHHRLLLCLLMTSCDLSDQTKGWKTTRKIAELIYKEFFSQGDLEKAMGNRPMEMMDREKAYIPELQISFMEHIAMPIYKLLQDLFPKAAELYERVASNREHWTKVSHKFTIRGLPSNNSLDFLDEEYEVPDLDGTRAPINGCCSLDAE

In turn, `CCC(CC)n1ncc2c(=O)[nH]c(CC3CCCCC3)nc21` [Example 3, 6-(Cyclohexylmethyl)-1-(1-ethylpropyl)-1,5-dihydro-4H-pyrazolo[3,4-d]pyrimidin-4-one] registered a melting point of 122 °C. Further, on PDE1C, the IC50 stood at 0.72 µM. Also, on PDE2A, the IC50 was greater than 4 µM. The IC50 on PDE3B is greater than 4 µM. Besides, the IC50 at PDE4B is greater than 4 µM. For the same compound, the IC50 at PDE5A is greater than 4 µM. The IC50 at PDE7B is greater than 4 µM. On PDE8A, the IC50 was greater than 4 µM. For the same compound, the IC50 at PDE9A worked out at 0.11 µM. Further, the IC50 at PDE10A is greater than 4 µM.
